Assay results taken from the METLIN SMRT retention time set (Domingo-Almenara et al. 2019).

assay: gradient 5% acetonitrile 3 min, to 50% in 2 min, to 85% in 15 min, held 3 min, 100 µL/min; conditions: column: Zorbax Extend-C18 2.1 x 50 mm; eluents: water / acetonitrile, 0.1% formic acid
Summary of the method: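 Retention time was recorded from adduct peaks, which were picked computationally and each inspected manually. Pure standards ran in mixtures of ~100 molecules on HPLC coupled to a quadrupole time-of-flight mass spectrometer, in positive and negative ionization mode, through a Zorbax Extend-C18 column (2.1 × 50 mm, 1.8 μm) at 100 μL/min. Eluents were water and acetonitrile, each with 0.1% formic acid.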

| RP-LC retention time | Structure (SMILES) |
| --- | --- |
| 968 s | Cc1ccc(-c2noc(CCn3nc(-c4ccc5c(c4)OCO5)ccc3=O)n2)cc1 |
| 1030 s | CCS(=O)(=O)c1ccc2c(c1)N(Cc1nc(-c3ccc(OC(F)(F)F)cc3)no1)C(=O)CO2 |
| 598 s | Cc1nn(C)c(C)c1S(=O)(=O)N1CCC(Cc2nc(-c3cccnc3)n[nH]2)C1 (stereo not given) |
| 670 s | O=C1NC(=O)N2CCSC2(Cc2ccccc2)N1 (stereo not given) |
| 922 s | Cn1c(=O)n(Cc2cccc(Cl)c2)c(=O)c2cnc(-c3ccncc3)nc21 |
| 753 s | CC(C)C(=O)Nc1ccc(-n2cnc(C(=O)NCc3ccc(F)cc3)c2)nc1 |
| 667 s | CCN1CCN(CCCNC(=O)c2ccc3nc(C(C)C)oc3c2)CC1 |
| 831 s | Cc1ccc(C2=NC3(CCN(C(=O)c4ccc5c(c4)OCO5)CC3)NC2=O)cc1C |
| 1160 s | CCCCn1c(=O)c2ccccc2n(Cc2nc(-c3ccccc3Cl)no2)c1=O |
| 1090 s | O=C(c1ccccc1)c1ccccc1C(=O)c1ccccc1 |
| 881 s | COc1ccccc1-c1csc(NC(=O)Cc2csc(C)n2)n1 |
| 850 s | O=C(N[C@H]1C[C@@H]2C[C@H]1N(C(=O)c1ccc(F)c(Cl)c1)C2)c1ccccc1 |
| 762 s | O=C(NCC1CCCCC1)C1CCCN(c2ccc(-c3ccccc3)nn2)C1 (stereo not given) |
| 1110 s | CCc1ccc(NC(=O)C2CCCN(S(=O)(=O)c3cc(-c4noc(CC)n4)cs3)C2)cc1 (stereo not given) |
| 803 s | Cc1cccc(C)c1OCC(=O)c1ccc2c(c1)N(CCCC(=O)NCC1CCCO1)C(=O)CO2 (stereo not given) |
| 686 s | Cc1cnc(C2CCC2)n1CC1CCN(S(=O)(=O)c2ccccc2)CC1 |
| 885 s | O=C(NC1CCCCCCC1)C1CCN(C(=O)c2ncn3c2COC(c2ccccc2)C3)CC1 (stereo not given) |
| 1020 s | CC(=O)Oc1ccccc1C1=NN(C(C)=O)C(c2ccc(Cl)cc2)O1 (stereo not given) |
| 575 s | O=C(O)c1cccnc1N1CCCCC1 |
| 1160 s | C=CCn1c(=O)c2ccccc2n(Cc2nc(-c3ccc(CC)cc3)no2)c1=O |

Second part, the compound before the results:

| Structure (SMILES) | RP-LC retention time |
| --- | --- |
| Cc1cc(C)n(-c2ccc(C(=O)NCCCN3CCCC3=O)nn2)n1 | 637 s |
| CO[C@H]1C(=O)N(C2CCN(C(=O)Nc3ccc4c(c3)OCCO4)CC2)[C@H]1c1ccncc1 | 582 s |
| CN(C)c1ccc(-c2nc3ncccn3c2NCc2ccccc2)cc1 | 726 s |
| O=C(N[C@H]1C[C@@H]2C[C@H]1CN2C(=O)Cc1c(F)cccc1Cl)c1cccs1 | 710 s |
| Cc1ccc(C(C)NC(=O)c2nnc(-c3ccc(S(=O)(=O)N(C)C)cc3)o2)c(C)c1 (stereo not given) | 984 s |
| Cc1ccc(F)c2c(=O)c3c([nH]c12)CCN(CC(=O)Nc1ccc2c(c1)OCO2)C3 | 615 s |
| O=C(c1nnc(-c2ccc(S(=O)(=O)N3CCCCC3)cc2)o1)N1CCC(N2CCCCC2)CC1 | 654 s |
| CSc1ccc(CNC(=O)CCc2nnc3c4cc(-c5ccccc5)nn4ccn23)cc1 | 780 s |
| O=C(CCn1cnc2cc(-c3noc(-c4ccccc4F)n3)ccc21)N1CCCC1 | 730 s |
| Cc1ccc(NS(=O)(=O)c2cc(-c3cc(C(F)(F)F)on3)sc2C)cc1Cl | 1190 s |
| O=C1CC(c2ccc(Cl)cc2)Cc2nc(N3CCN(c4ccccn4)CC3)ncc21 (stereo not given) | 752 s |
| CCNC(=O)C1CCCN(C(=O)Nc2ccc(NC(=O)Nc3ccc(CC)cc3)cc2)C1 (stereo not given) | 773 s |
| Cn1c(=O)c(N2CCCC(C(=O)NCCc3ccco3)C2)nc2cccnc21 (stereo not given) | 827 s |
| Cn1c(=O)c2nc(SCCC(=O)Nc3ccc(F)cc3)n(C)c2n(C)c1=O | 690 s |
| CS(=O)(=O)Nc1cccc(NC(=O)c2coc(NC(=O)c3ccccc3)n2)c1 | 656 s |
| CCn1c(=O)sc2cc(S(=O)(=O)N3CCC(C(=O)NCc4ccccc4)CC3)ccc21 | 845 s |
| CCN(Cc1ccccc1)C(=O)c1cn(-c2cc(N3CCC(C)CC3)ncn2)cn1 | 1120 s |
| COc1ccc(C(=O)N2CCc3nc(CNC(=O)C4CCC4)n(C)c3C2)cn1 | 585 s |
| NC(=O)C1CCN(C(=O)Cc2cc(-c3ccco3)on2)CC1 | 580 s |
| NS(=O)(=O)c1ccc(CCNC(=O)c2nc(CCS(=O)(=O)c3ccccc3)no2)cc1 | 692 s |
| COc1ccc(Cc2nc3nccc(-c4cc5ccccc5o4)n3n2)cc1 | 1090 s |
| Cn1ccc(C(=O)N2CC(n3cc(COc4ccc(F)cc4)nn3)C2)n1 | 722 s |
| COc1ccc(OCC(=O)N2CCN(Cc3noc4ccccc34)CC2)cc1 | 711 s |

| Structure (SMILES) | RP-LC retention time |
| --- | --- |
| COc1cccc(S(=O)(=O)N2CCC(Cc3nncn3C)CC2)c1 | 641 s |
| Cc1ccc(N(C)C(=O)c2nc(N3CCSCC3)c3cnn(C)c3n2)cc1 | 812 s |
| Cc1ccc(-c2nc(C3CCN(S(=O)(=O)c4c(C)cc(C)cc4C)CC3)no2)cc1 | 1420 s |
| CCOC(=O)CCC(=O)N1CCCC(COCc2ccccc2)C1 (stereo not given) | 842 s |
| O=C(c1cn(-c2cc(N3CCCCC3)ncn2)cn1)N1CC=C(c2ccccc2)CC1 | 1060 s |
| O=C(CN1C(=O)CCCc2cc(S(=O)(=O)N3CCCCC3)ccc21)NCc1ccc(F)cc1 | 862 s |
| O=C(Nc1cc(-c2ccccn2)no1)c1ccccc1F | 774 s |
| O=c1c2sccc2n(Cc2nc(-c3ccc(F)cc3)no2)c(=O)n1-c1cccc(F)c1 | 970 s |
| CCOC(=O)CNC(=O)N1CCC(n2c(-c3ccc(F)cc3)nc3cccnc32)C1 (stereo not given) | 641 s |
| CCN1c2ccc(C)cc2C(=O)NC12CCN(C(=O)c1cccc(OC)c1)CC2 | 805 s |
| Cc1ccc(N2CCC(NC(=O)Cc3ccccc3C)C2=O)cc1 (stereo not given) | 869 s |
| Cc1cccc(NC(=O)C2CCc3nc(N4CCOCC4)ncc3C2)c1 (stereo not given) | 786 s |
| O=C(Cn1c(=O)c2cccn2c2ccc(F)cc21)NCc1cccc(Br)c1 | 903 s |
| Cc1nnc(-c2cc(C)n(CC(=O)Nc3ccc(F)cc3)c2C)o1 | 754 s |
| Cc1cc(C)c(NC(=O)CN2C(=O)CC(c3cccs3)=Nc3ccccc32)c(C)c1 | 954 s |
| O=C(Cn1nc(C(=O)N2CCOCC2)c2ccccc21)NCc1ccc(F)cc1 | 715 s |
| Cc1ccc(NC(=O)N2CCc3nc(-c4ccc(F)cc4)ncc3C2)c(C)c1 | 979 s |
| CCOCCCNC(=O)c1c(N2CCCC2=O)c2cc(OC)ccc2n1CC | 761 s |
| CCCOc1ccc(C2C(=O)N(C3CCC(C)CC3)CC(=O)N2Cc2ccco2)cc1OC (stereo not given) | 1070 s |
| COC(=O)c1cnc2nc(C)ccc2c1Nc1ccc(OC)cc1 | 647 s |
| CC(C)c1cccc(N2C=C(C(=O)N3CCOCC3)S(=O)(=O)c3ccccc32)c1 | 878 s |
| Cc1ccc(CNC(=O)c2c(OCC(C)C)cc(=O)n3c2CCCCC3)o1 | 786 s |
